Laboratory results taken from patent US20150284452A1, “ANTIMICROBIAL COMPOSITIONS” (priority 2012, published 2015).

Test system: S. aureus NRS384 (USA300)
Experiment: MIC assay at multiple inoculum sizes
Assay type: cell-based, Staphylococcus aureus
Text: 5×10^6 cfu/ml and 75 nanomolar against an inoculum of 5×10^8 cfu/ml.

[1] = High Titer 5,000,000 CFU/well, ND = higher than highest tested concentration
[2] = High Titer 500,000,000 CFU/well, ND = higher than highest tested concentration
[3] = Low Titer 50,000,000 CFU/well, ND = higher than highest tested concentration

Lysostaphin (Sigma L9043): lysostaphin control (Sigma L9043), glycylglycine endopeptidase
MIC Rep 1 [1]: 27.1 nM
MIC Rep 2 [1]: 27.1 nM
MIC Ave (High Titer 5,000,000 CFU/well, average of replicates): 27.1 nM
MIC Ave [2]: 200 nM
MIC Rep 2 [2]: 200 nM
MIC Rep 1 (Low Titer 50,000 CFU/well): 54 nM
MIC Rep 2 (Low Titer 50,000 CFU/well): 27.1 nM
MIC Ave (Low Titer 50,000 CFU/well, average of replicates): 40.7 nM
MIC Ave [3]: 200 nM
MIC Rep 1 [3]: 200 nM
MIC Rep 2 [3]: 200 nM
